From ChEMBL document CHEMBL3124747, “Formosusin A, a novel specific inhibitor of mammalian DNA polymerase β from the fungus Paecilomyces formosus” (Bioorg Med Chem, 2014) come the findings set out here.

The target in assay [1] is T1, DNA polymerase lambda (Mus musculus, UniProt Q9QXE2).
T1 sequence (Q9QXE2 whole entry): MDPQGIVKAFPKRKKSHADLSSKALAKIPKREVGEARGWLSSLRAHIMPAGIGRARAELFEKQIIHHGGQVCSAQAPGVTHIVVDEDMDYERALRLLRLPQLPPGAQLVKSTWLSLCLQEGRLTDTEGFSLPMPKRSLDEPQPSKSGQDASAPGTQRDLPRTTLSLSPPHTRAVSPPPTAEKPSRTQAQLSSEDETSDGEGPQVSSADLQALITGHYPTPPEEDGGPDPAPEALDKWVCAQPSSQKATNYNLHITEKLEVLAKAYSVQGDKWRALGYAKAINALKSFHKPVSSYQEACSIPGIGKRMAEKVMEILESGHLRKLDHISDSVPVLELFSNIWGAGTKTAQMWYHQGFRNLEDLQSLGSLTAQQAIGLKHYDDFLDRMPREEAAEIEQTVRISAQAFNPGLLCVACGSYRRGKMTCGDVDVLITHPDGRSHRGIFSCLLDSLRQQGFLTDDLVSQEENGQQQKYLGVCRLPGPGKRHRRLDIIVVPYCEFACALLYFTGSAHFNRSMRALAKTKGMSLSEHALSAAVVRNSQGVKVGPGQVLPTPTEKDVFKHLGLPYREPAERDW
Nature of the assay: Inhibition of mouse DNA polymerase lambda assessed as inhibition of incorporation of dTTP into poly(dA)/oligo(dT)18 after 60 mins.

Assay [2] concerns the target Deoxyribonuclease-1 (Bos taurus, UniProt P00639). Put plainly: Inhibition of bovine deoxyribonuclease 1 assessed as inhibition of incorporation of dTTP into poly(dA)/oligo(dT)18 after 60 mins.
Assay [3] is described as follows: Inhibition of C-terminal His-6-tagged L. cv.Nipponbare rice recombinant DNA polymerase lambda expressed in Escherichia coli assessed as inhibition of incorporation of dTTP into poly(dA)/oligo(dT)18 after 60 mins. Further details: species or system Oryza sativa.
Assay [4] can be described thus: Inhibition of cauliflower DNA polymerase alpha assessed as inhibition of incorporation of dTTP into poly(dA)/oligo(dT)18 after 60 mins. The arrangement: species or system Brassica oleracea var. botrytis.
Assay [5] deals with T2, DNA polymerase alpha catalytic subunit (Drosophila melanogaster, UniProt P26019).
T2 sequence (P26019 whole entry): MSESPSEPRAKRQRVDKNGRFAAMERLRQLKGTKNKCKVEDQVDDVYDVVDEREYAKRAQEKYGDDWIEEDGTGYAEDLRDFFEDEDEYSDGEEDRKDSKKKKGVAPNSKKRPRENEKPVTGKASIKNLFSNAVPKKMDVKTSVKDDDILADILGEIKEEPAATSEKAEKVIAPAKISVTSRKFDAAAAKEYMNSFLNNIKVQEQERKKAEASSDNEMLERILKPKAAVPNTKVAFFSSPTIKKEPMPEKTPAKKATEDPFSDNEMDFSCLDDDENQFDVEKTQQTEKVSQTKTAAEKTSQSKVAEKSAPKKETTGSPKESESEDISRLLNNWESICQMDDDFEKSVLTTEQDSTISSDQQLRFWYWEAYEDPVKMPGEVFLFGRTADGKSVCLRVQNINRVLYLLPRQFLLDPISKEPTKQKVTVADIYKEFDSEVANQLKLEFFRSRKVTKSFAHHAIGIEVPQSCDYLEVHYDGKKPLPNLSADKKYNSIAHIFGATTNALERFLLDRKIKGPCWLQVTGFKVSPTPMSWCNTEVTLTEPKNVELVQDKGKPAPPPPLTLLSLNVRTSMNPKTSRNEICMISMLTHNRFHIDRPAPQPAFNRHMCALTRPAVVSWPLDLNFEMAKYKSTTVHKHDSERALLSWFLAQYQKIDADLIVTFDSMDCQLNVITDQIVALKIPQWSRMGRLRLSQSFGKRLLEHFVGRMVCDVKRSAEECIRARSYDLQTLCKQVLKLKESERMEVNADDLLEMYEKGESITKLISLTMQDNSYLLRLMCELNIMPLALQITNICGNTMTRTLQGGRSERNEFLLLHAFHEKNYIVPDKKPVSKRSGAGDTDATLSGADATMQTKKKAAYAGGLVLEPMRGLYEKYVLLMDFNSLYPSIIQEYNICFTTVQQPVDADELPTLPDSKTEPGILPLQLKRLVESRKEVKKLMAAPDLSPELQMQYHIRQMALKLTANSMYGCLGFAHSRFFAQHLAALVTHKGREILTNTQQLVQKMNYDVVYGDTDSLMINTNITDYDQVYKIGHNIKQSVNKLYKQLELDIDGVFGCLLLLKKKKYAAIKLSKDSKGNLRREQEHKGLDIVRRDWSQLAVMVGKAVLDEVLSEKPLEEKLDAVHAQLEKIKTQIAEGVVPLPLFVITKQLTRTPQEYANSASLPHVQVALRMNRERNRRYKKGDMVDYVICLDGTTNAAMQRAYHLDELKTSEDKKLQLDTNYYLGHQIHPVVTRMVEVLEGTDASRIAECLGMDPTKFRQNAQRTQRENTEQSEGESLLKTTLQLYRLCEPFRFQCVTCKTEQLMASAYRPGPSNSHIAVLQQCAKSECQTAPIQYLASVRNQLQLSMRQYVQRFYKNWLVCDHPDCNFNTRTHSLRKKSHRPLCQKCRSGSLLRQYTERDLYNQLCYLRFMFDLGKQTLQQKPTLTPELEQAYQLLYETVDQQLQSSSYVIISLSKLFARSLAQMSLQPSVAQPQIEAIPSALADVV
Nature of the assay: Inhibition of fruit fly DNA polymerase alpha assessed as inhibition of incorporation of dTTP into poly(dA)/oligo(dT)18 after 60 mins.

Assay [6] can be described thus: Inhibition of calf thymus DNA polymerase alpha assessed as inhibition of incorporation of dTTP into poly(dA)/oligo(dT)18 after 60 mins. Further details: species or system Bos taurus.
A short description of assay [7]: Inhibition of human His-tagged DNA polymerase gamma expressed in baculovirus assessed as inhibition of incorporation of dTTP into poly(dA)/oligo(dT)18 after 60 mins.
In assay [8] the target is T3, DNA polymerase beta (Rattus norvegicus, UniProt P06766). Nature of the assay: Noncompetitive inhibition of recombinant rat DNA polymerase beta using dTTP as substrate by Lineweaver-Burk plot analysis.
Assay [9] concerns the target T3, DNA polymerase beta. Put plainly: Competitive inhibition of recombinant rat DNA polymerase beta using poly(dA)/oligo(dT)18 as substrate by Lineweaver-Burk plot analysis.
For assay [10], the target named is DNA polymerase beta (Rattus norvegicus) (UniProt P06766). Nature of the assay: Inhibition of recombinant rat DNA polymerase beta expressed in Escherichia coli JMpbeta5 assessed as inhibition of incorporation of dTTP into poly(dA)/oligo(dT)18 after 60 mins.

Each structure is given as a SMILES string.

Chain of Deoxyribonuclease-1 (P00639 whole entry): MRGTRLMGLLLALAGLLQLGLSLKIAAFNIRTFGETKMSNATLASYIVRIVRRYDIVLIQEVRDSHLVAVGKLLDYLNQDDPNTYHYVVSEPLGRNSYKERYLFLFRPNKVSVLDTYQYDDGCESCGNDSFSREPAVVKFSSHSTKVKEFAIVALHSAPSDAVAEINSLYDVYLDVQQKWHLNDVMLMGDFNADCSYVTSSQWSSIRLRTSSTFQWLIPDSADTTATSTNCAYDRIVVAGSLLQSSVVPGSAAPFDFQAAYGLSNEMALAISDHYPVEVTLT

The term IC50 denotes the concentration needed to halve the response being measured. With `CCCC[C@@H](O)/C=C(C)/C=C/C=C/C(=O)N1CCCC1=O` [PECILOCIN], the IC50 in assay [1], in assay [2], in assay [3], in assay [4], in assay [5] and in [6] was above 200 µM each time. Moreover, the IC50 in assay [7] is above 200 µM.
Regarding `CC(/C=C/CCC(=O)N1CCCC1=O)=C\C1CCCCO1` (stereo unspecified), the IC50 in assay [1], in assay [2], in [3], in assay [4], in [5] and in assay [6] was above 200 µM in each case. In addition, the IC50 in [7] was above 200 µM.
For `CCCCC(=O)/C=C(C)/C=C/CCC(=O)N1CCCC1=O`, the IC50 in [1], in assay [2], in assay [3], in assay [4], in [5] and in [6] was above 200 µM each time. Besides, the IC50 in [7] is above 200 µM.
By Ki is commonly meant the dissociation constant of the complex between target and ligand, obtained from inhibition or displacement. With `CCCC[C@@H](O)/C=C(C)/C=C/C=C\C(=O)N1CCCC1=O`, the Ki was found to be 11.6 µM in [8] and 5.5 µM in assay [9]. Besides, the IC50 in assay [1], in assay [2], in [3], in assay [4], in assay [5] and in [6] was above 200 µM each time. Further, the IC50 in assay [7] was above 200 µM. Also, the inhibition result in assay [10] was “Dose-dependent effect”.
